From PMC10698032, “A monoacylglycerol lipase inhibitor showing therapeutic efficacy in mice without central side effects or dependence” (Nature Communications, 2023)

Legend:
Assay in all cases: biochemical
Set-up in all cases: CEREP off-target panel, radioligand binding, inhibition of control specific binding
Conditions in all cases: read-out: % Inhibition of Control Specific Binding, Mean
[1] = molecular target: T1, kappa (h) (KOP) (agonist radioligand) (Homo sapiens, UniProt P41145)
T1 construct: gene OPRK1; agonist radioligand
T1 sequence (P41145 whole entry): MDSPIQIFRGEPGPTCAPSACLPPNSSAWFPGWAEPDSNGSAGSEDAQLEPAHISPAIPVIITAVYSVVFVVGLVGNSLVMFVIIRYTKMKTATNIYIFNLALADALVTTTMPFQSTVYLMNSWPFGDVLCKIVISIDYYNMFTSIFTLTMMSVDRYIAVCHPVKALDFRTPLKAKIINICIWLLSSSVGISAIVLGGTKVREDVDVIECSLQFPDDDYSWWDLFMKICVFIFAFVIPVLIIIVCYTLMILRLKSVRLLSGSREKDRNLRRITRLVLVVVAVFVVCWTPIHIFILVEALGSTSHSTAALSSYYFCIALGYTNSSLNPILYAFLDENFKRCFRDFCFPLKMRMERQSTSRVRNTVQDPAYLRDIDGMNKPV

[2] = molecular target: T2, GR (h) (agonist radioligand) (Homo sapiens, UniProt P04150)
T2 construct: gene NR3C1; agonist radioligand
T2 sequence (P04150 whole entry): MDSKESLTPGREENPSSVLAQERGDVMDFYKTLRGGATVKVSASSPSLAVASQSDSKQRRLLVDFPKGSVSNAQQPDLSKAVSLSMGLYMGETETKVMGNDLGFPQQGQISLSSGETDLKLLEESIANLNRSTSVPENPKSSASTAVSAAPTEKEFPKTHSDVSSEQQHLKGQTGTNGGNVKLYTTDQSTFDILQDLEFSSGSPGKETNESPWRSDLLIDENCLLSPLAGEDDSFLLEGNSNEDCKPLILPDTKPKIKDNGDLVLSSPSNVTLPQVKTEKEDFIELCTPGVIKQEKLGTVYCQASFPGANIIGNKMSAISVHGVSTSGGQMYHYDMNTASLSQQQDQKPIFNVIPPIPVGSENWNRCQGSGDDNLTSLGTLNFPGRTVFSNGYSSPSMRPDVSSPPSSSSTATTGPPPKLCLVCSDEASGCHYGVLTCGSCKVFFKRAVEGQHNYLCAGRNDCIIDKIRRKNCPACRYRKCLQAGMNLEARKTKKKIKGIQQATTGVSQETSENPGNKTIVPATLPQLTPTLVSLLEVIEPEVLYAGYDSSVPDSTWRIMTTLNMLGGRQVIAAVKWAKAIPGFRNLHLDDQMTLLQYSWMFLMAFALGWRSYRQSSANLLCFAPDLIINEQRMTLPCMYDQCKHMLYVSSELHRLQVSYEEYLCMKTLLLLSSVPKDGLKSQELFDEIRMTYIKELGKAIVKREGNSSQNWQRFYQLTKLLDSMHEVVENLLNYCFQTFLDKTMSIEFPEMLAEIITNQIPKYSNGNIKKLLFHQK

[3] = molecular target: T3, 5-HT1B (h) (antagonist radioligand) (Homo sapiens, UniProt P28222)
T3 construct: gene HTR1B; antagonist radioligand
T3 sequence (P28222 whole entry): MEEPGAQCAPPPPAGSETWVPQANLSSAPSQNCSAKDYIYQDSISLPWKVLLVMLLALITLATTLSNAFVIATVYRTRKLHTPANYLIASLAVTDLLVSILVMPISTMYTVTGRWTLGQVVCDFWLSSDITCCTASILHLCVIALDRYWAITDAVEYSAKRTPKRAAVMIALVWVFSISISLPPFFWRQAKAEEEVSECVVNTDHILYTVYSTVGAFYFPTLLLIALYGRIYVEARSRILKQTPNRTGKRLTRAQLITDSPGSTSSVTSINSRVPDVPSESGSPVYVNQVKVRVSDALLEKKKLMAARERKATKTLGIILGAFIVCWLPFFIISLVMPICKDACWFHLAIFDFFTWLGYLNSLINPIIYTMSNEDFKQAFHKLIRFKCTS

[4] = molecular target: T4, ETA(h) (agonist radioligand) (Homo sapiens, UniProt P25101)
T4 construct: gene EDNRA; agonist radioligand

[5] = molecular target: T5, β1(h) (agonist radioligand) (Homo sapiens, UniProt P08588)
T5 construct: gene ADRB1; agonist radioligand

[6] = molecular target: T6, α1A(h) (antagonist radioligand) (Homo sapiens, UniProt P35348)
T6 construct: gene ADRA1A; antagonist radioligand
T6 sequence (P35348 whole entry): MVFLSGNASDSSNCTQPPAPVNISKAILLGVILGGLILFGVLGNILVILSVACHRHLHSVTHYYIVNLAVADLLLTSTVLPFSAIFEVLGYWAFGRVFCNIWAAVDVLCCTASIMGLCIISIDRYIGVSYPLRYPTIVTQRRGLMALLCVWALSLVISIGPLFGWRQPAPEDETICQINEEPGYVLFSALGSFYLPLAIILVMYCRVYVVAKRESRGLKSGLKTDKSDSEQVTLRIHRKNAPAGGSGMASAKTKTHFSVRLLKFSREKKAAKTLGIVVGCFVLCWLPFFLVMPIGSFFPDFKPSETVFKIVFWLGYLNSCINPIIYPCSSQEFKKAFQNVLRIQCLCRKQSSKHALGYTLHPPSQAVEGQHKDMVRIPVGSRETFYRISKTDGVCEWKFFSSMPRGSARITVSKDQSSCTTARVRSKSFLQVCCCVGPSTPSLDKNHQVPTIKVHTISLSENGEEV

[7] = molecular target: T7, 5-HT2B(h) (agonist radioligand) (Homo sapiens, UniProt P41595)
T7 construct: gene HTR2B; agonist radioligand
T7 sequence (P41595 whole entry): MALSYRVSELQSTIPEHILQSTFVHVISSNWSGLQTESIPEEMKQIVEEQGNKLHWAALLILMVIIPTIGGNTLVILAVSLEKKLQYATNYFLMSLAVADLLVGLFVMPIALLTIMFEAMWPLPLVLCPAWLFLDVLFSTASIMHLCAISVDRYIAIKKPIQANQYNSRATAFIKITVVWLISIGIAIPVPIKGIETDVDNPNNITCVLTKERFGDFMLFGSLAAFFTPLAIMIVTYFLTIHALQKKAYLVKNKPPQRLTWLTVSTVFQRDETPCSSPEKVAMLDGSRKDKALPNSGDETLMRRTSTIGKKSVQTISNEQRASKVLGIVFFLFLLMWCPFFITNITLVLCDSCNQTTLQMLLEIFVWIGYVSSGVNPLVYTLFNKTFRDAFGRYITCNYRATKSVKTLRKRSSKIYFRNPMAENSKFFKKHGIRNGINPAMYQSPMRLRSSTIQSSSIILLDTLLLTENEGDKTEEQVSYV

[8] = molecular target: T8, D1(h) (antagonist radioligand) (Homo sapiens, UniProt P21728)
T8 construct: gene DRD1; antagonist radioligand

[9] = molecular target: T9, CCK1 (CCKA) (h) (agonist radioligand) (Homo sapiens, UniProt P32238)
T9 construct: gene CCKAR; agonist radioligand
T9 sequence (P32238 whole entry): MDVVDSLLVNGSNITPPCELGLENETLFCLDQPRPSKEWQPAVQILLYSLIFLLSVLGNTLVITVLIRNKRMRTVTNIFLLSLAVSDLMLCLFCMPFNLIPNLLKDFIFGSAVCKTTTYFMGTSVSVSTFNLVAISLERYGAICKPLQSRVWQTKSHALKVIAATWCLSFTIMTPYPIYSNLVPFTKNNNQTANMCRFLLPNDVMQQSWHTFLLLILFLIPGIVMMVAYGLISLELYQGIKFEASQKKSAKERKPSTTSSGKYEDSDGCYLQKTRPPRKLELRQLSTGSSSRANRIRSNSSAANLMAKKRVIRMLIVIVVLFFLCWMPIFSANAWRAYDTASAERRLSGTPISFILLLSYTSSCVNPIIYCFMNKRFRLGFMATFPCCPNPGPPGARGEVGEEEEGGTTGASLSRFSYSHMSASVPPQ

[10] = molecular target: T10, δ (DOP) (h) (agonist radioligand) (Homo sapiens, UniProt P41143)
T10 construct: gene OPRD1; agonist radioligand

[11] = molecular target: T11, H1(h) (antagonist radioligand) (Homo sapiens, UniProt P35367)
T11 construct: gene HRH1; antagonist radioligand
T11 sequence (P35367 whole entry): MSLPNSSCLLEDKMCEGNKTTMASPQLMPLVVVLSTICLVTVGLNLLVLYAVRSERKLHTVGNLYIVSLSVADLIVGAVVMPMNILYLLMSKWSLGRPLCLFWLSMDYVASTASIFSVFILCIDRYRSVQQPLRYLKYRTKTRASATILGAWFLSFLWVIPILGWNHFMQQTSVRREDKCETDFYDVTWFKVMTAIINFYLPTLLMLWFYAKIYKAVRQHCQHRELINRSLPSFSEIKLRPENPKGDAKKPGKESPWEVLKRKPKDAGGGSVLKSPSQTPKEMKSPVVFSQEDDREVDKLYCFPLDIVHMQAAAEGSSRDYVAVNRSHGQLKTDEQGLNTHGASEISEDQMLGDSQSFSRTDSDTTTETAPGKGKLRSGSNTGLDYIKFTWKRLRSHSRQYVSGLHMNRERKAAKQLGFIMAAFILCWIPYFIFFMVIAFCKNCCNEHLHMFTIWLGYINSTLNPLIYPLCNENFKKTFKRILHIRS

[12] = molecular target: T12, β2(h) (antagonist radioligand) (Homo sapiens, UniProt P07550)
T12 construct: gene ADRB2; antagonist radioligand
T12 sequence (P07550 whole entry): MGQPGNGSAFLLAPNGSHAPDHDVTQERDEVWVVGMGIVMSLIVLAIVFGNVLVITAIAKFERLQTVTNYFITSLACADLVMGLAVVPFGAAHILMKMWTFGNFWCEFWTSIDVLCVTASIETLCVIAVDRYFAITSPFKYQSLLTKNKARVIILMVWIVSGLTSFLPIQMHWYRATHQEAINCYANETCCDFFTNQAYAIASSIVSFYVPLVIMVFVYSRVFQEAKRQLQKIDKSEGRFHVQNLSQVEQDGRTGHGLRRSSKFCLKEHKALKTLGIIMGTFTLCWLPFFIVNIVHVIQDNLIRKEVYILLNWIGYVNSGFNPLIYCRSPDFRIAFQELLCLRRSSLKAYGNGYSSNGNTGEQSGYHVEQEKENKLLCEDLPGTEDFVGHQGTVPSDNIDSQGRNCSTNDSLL

[13] = molecular target: T13, N neuronal α4β2 (h) (agonist radioligand) (Homo sapiens, UniProt P17787+P43681)
T13 construct: gene CHRNB2; agonist radioligand

[14] = molecular target: T14, α2A(h) (antagonist radioligand) (Homo sapiens, UniProt P08913)
T14 construct: gene ADRA2A; antagonist radioligand

[15] = molecular target: T15, 5-HT3(h) (antagonist radioligand) (Homo sapiens, UniProt P46098)
T15 construct: gene HTR3A; antagonist radioligand

[16] = molecular target: T16, AR(h) (agonist radioligand) (Homo sapiens, UniProt P10275)
T16 construct: agonist radioligand

[17] = molecular target: T17, H2(h) (antagonist radioligand) (Homo sapiens, UniProt P25021)
T17 construct: gene HRH2; antagonist radioligand
T17 sequence (P25021 whole entry): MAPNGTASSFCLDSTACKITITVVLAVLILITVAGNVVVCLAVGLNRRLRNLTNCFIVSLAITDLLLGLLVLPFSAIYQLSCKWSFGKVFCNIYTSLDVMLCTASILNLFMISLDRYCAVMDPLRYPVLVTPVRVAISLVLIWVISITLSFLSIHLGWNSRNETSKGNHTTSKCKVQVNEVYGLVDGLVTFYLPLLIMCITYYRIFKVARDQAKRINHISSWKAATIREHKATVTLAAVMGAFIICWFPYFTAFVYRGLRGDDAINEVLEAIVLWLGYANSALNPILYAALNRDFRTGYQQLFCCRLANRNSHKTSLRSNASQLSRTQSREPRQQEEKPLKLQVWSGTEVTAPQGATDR

dopamine transporter(h) = molecular target: T18, dopamine transporter(h) (Homo sapiens, UniProt Q01959)
T18 construct: gene SLC6A3
T18 sequence (Q01959 whole entry): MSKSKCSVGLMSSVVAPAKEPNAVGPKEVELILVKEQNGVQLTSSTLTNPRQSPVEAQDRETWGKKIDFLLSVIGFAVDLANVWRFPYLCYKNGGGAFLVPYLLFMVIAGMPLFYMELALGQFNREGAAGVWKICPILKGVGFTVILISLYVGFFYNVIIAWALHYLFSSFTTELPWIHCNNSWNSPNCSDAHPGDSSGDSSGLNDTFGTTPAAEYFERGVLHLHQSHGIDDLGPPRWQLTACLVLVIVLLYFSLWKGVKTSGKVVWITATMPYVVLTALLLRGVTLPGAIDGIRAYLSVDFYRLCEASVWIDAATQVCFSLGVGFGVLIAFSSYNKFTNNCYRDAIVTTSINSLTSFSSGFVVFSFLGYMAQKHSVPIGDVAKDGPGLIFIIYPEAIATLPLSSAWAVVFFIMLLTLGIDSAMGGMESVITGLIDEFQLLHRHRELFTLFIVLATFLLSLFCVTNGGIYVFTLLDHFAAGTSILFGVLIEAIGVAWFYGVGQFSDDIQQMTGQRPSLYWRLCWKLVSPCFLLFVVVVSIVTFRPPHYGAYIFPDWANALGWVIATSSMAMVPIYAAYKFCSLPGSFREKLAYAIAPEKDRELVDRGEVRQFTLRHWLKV
From the text: (§1) Mass spectrometry (MS)-based chemical proteomics experiments emulated these findings (Fig. 3d).

[18] = molecular target: T19, norepinephrine transporter(h) (Homo sapiens, UniProt P23975)
T19 construct: gene SLC6A2
From the text: as §1

CCC(F)(F)C(=O)C[S+]([O-])c1ccc(C(=O)N2CCN(c3cccc(Cl)c3)[C@@H](C)[C@@H]2C)cc1Cl (mixture of isomers) [compound 3, LEI-515]
inhibition at 1 µM [1]: 21.7% | inhibition at 10 µM [1]: 59.5% | inhibition at 10 µM [2]: 30.2% | inhibition at 10 µM [3]: 24.2% | inhibition at 10 µM [4]: -8% | inhibition at 10 µM [5]: 6.6% | inhibition at 10 µM [6]: 3.5% | inhibition at 10 µM [7]: 27.6% | inhibition at 10 µM [8]: 6.2% | inhibition at 10 µM [9]: 19.5% | inhibition at 10 µM [10]: 48.3% | inhibition at 10 µM [11]: 8.1% | inhibition at 10 µM [12]: 26.8% | inhibition at 10 µM [13]: -10.5% | inhibition at 10 µM [14]: 18.3% | inhibition at 10 µM [15]: -8.1% | inhibition at 10 µM [16]: -7% | inhibition at 10 µM [17]: -26% | inhibition at 10 µM (dopamine transporter(h)): 45.2% | inhibition at 10 µM [18]: 25.3%
